Values of other authors as cited in patent publication US11053214B2, “Compositions and methods related to pyridinoylpiperidine 5-HT1F agonists” (COLUCID PHARMACEUTICALS, INC., priority 2016, dated 2021).

Assays:
[1] = system: other 5-HT1 receptor subtypes
rabbit saphenous vein = settings: concentrations up to 0.1 mM
migraine = settings: early clinical proof-of-concept study

SMILES | affinity higher for 5-HT1F receptors than for other 5-HT1 receptor subtypes [1] | constriction of rabbit saphenous vein (rabbit saphenous vein) | efficacy in the acute treatment of migraine (migraine)
CN1CCC(C(=O)c2cccc(NC(=O)c3c(F)cc(F)cc3F)n2)CC1.O=C(O)CCC(=O)O [Compound I, hemisuccinate salt of 2,4,6-trifluoro-N-[6-(1-methyl-piperidine-4-carbonyl)-pyridin-2-yl]-benzamide] | more than 450 fold | did not constrict | 
CN1CCC(c2c[nH]c3ccc(NC(=O)c4ccc(F)cc4)cc23)CC1 [LY334370] |  |  | proved effective
